This note sets out measurements from patent US20240199618A1, “NOVEL N-ACYL-[3-SUBSTITUTED]-[8-SUBSTITUTED]-5,6-DIHYDRO-[1,2,4]TRIAZOLO[4,3-a]PYRAZINES AS SELECTIVE NK-3 RECEPTOR ANTAGONISTS, PHARMACEUTICAL COMPOSITION, METHODS FOR USE IN NK-3 RECEPTOR-MEDIATED DISORDERS” (Ogeda SA, priority 2013, published 2024).

One series deals with human NK-3 receptor (Homo sapiens (Human), UniProt P29371). The experiment in a line: Aequorin functional assay with human NK-3 receptor (antagonist testing vs NKA). In kind it is cell-based. The conditions noted are these: CHO cells, NKA at EC80 (3 nM); read-out: Functional assay: Aequorin assay with human NK-3 receptor hNK-3-AEQ (antagonist IC50). In a few lines:
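CHO cells co-expressing human NK-3 receptor and apoaequorin were pre-incubated 3 min with compound, then challenged with NKA at EC80 (3 nM). Coelenterazine-dependent luminescence was integrated over 90 s, and antagonism was derived from concentration-dependent inhibition of the calcium response.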

The test system of a further series is plasma protein. The series can be described thus: Determination of plasma protein binding (equilibrium dialysis, RED). In kind it is in vitro ADME. Conditions: 4 hours at 37° C. On the technique in general: Equilibrium dialysis compares concentrations on both sides of a semipermeable membrane.

human NK-3 receptor, sequence (P29371 whole entry): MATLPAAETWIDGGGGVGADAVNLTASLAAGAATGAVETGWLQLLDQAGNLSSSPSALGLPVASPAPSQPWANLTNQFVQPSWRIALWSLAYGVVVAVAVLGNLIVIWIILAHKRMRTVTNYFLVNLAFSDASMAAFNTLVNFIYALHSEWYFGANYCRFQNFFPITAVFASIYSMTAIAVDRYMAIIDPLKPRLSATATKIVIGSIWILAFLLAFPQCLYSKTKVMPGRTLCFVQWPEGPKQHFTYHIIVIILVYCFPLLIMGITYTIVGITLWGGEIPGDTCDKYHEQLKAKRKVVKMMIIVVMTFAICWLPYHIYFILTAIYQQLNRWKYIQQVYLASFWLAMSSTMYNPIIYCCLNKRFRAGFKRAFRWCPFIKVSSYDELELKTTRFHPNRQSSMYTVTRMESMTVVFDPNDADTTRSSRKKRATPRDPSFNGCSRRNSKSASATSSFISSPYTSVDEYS

The IC50 is the point on the concentration scale where inhibition reaches its midpoint. Regarding `Cc1nsc(-c2nnc3n2CCN(C(=O)c2ccc(F)cc2)[C@@H]3C)n1` [Compound 5, (R)-(4-fluorophenyl)(8-methyl-3-(3-methyl-1,2,4-thiadiazol-5-yl)-5,6-dihydro-[1,2,4]triazolo[4,3-a]pyrazin-7(8H)-yl)methanone], at human NK-3 receptor, the IC50 stood at 18 nM. In the series with plasma protein, the “Exposure (% rPPB), bound drug fraction to plasma protein” value is on record as 22%.
